In the supplement of paper PMC11451515:

System: P12-Ichikawa
Assay: cell viability relative to DMSO control; higher = less cytotoxic
Conditions: 48 h
Outline: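 NOMO1 or SEM cells were plated at 500 cells/well and P12-Ichikawa cells at 1000 cells/well in 1536-well plates (5 μl), after each leukemia line had been adapted for at least four passages in each medium. Pin dosing delivered library compounds in DMSO at 11 threefold concentrations, 47 μM to 0.79 nM. CellTiter-Glo One luminescence was read after 48 h at 37°C. Viability is reported as a per-plate percentage of DMSO wells, with cell-free wells as background.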

[1] = RPMI 5 mM glucose + 10% FBS, 0.000781 µM
[2] = RPMI 5 mM glucose + 10% FBS, 0.00234 µM
[3] = RPMI 5 mM glucose + 10% FBS, 0.00702 µM
[4] = RPMI 5 mM glucose + 10% FBS, 0.0211 µM
[5] = RPMI 5 mM glucose + 10% FBS, 0.0632 µM
[6] = RPMI 5 mM glucose + 10% FBS, 0.19 µM
[7] = RPMI 5 mM glucose + 10% FBS, 0.569 µM
[8] = RPMI 5 mM glucose + 10% FBS, 1.71 µM
[9] = RPMI 5 mM glucose + 10% FBS, 5.12 µM
[10] = RPMI 5 mM glucose + 10% FBS, 15.4 µM
[11] = RPMI 5 mM glucose + 10% FBS, 46.1 µM
[12] = HPLM + 10% dialyzed FBS, 0.000781 µM
[13] = HPLM + 10% dialyzed FBS, 0.00234 µM
[14] = HPLM + 10% dialyzed FBS, 0.00702 µM
[15] = HPLM + 10% dialyzed FBS, 0.0211 µM
[16] = HPLM + 10% dialyzed FBS, 0.0632 µM
[17] = HPLM + 10% dialyzed FBS, 0.19 µM
[18] = HPLM + 10% dialyzed FBS, 0.569 µM
[19] = HPLM + 10% dialyzed FBS, 1.71 µM
[20] = HPLM + 10% dialyzed FBS, 5.12 µM
[21] = HPLM + 10% dialyzed FBS, 15.4 µM
[22] = HPLM + 10% dialyzed FBS, 46.1 µM
[23] = RPMI 5 mM glucose + 10% dialyzed FBS, 0.000781 µM
[24] = RPMI 5 mM glucose + 10% dialyzed FBS, 0.00234 µM
[25] = RPMI 5 mM glucose + 10% dialyzed FBS, 0.00702 µM
[26] = RPMI 5 mM glucose + 10% dialyzed FBS, 0.0211 µM
[27] = RPMI 5 mM glucose + 10% dialyzed FBS, 0.0632 µM
[28] = RPMI 5 mM glucose + 10% dialyzed FBS, 0.19 µM
[29] = RPMI 5 mM glucose + 10% dialyzed FBS, 0.569 µM
[30] = RPMI 5 mM glucose + 10% dialyzed FBS, 1.71 µM
[31] = RPMI 5 mM glucose + 10% dialyzed FBS, 5.12 µM
[32] = RPMI 5 mM glucose + 10% dialyzed FBS, 15.4 µM
[33] = RPMI 5 mM glucose + 10% dialyzed FBS, 46.1 µM

| SMILES | cell viability [1] [%] | cell viability [2] [%] | cell viability [3] [%] | cell viability [4] [%] | cell viability [5] [%] | cell viability [6] [%] | cell viability [7] [%] | cell viability [8] [%] | cell viability [9] [%] | cell viability [10] [%] | cell viability [11] [%] | cell viability [12] [%] | cell viability [13] [%] | cell viability [14] [%] | cell viability [15] [%] | cell viability [16] [%] | cell viability [17] [%] | cell viability [18] [%] | cell viability [19] [%] | cell viability [20] [%] | cell viability [21] [%] | cell viability [22] [%] | cell viability [23] [%] | cell viability [24] [%] | cell viability [25] [%] | cell viability [26] [%] | cell viability [27] [%] | cell viability [28] [%] | cell viability [29] [%] | cell viability [30] [%] | cell viability [31] [%] | cell viability [32] [%] | cell viability [33] [%] |
| --- | --- | --- | --- | --- | --- | --- | --- | --- | --- | --- | --- | --- | --- | --- | --- | --- | --- | --- | --- | --- | --- | --- | --- | --- | --- | --- | --- | --- | --- | --- | --- | --- | --- |
| O=C(CCCCCCC(=O)Nc1ccc([C@H]2O[C@@H](CSc3nc(-c4ccccc4)c(-c4ccccc4)o3)C[C@@H](c3ccc(CO)cc3)O2)cc1)NO | 118 | 122 | 134 | 123 | 136 | 116 | 115 | 114 | 49.9 | 4.95 | 3.26 |  |  |  |  |  |  |  |  |  |  |  |  |  |  |  |  |  |  |  |  |  |  |
| O=C(CCc1ccc(O)cc1)c1c(O)cc(O)cc1O | 89.5 | 91 | 100 | 103 | 90.2 | 101 | 106 | 104 | 105 | 107 | 91.1 | 94.5 | 106 | 104 | 99.5 | 103 | 111 | 110 | 116 | 112 | 103 | 110 | 81.6 | 92 | 93 | 96.7 | 100 | 98.7 | 103 | 94.3 | 102 | 90.4 | 99.4 |
| Cc1ccc(C(=O)Nc2cccc(C(F)(F)F)c2)cc1-c1ccc2nc(NCCN3CCOCC3)ncc2c1 | 105 | 106 | 119 | 115 | 113 | 111 | 113 | 109 | 62.2 | 50.3 | 31.7 | 110 | 111 | 112 | 111 | 116 | 109 | 107 | 92.6 | 85 | 64.2 | 42.6 | 110 | 107 | 107 | 105 | 116 | 107 | 103 | 92.5 | 73.7 | 49.3 | 30.5 |
| N#C/C(=C\c1ccc(O)c(O)c1)C(=O)NCc1ccccc1 | 105 | 106 | 101 | 101 | 103 | 94.3 | 103 | 97.6 | 87 | 68.2 | 36.7 | 101 | 96.5 | 103 | 106 | 104 | 106 | 103 | 100 | 102 | 68.5 | 47.4 | 95.2 | 96.1 | 99.5 | 97 | 98.7 | 88.3 | 93.1 | 94.7 | 80.3 | 67.7 | 41.5 |
| N[S+](=O)([O-])c1cc2c(cc1Cl)NC(C(Cl)Cl)N[S+]2(=O)[O-] (stereo not given) | 114 | 120 | 111 | 120 | 126 | 129 | 127 | 130 | 139 | 123 | 128 | 102 | 109 | 105 | 112 | 113 | 118 | 117 | 120 | 114 | 123 | 118 | 109 | 117 | 104 | 118 | 118 | 122 | 114 | 124 | 121 | 122 | 115 |
| C=C1C(=O)[C@@]23C(CC[C@@H]1[C@H]2O)[C@@]12CO[C@]3(O)[C@@H](O)[C@@H]1C(C)(C)CC[C@@H]2O (stereo not given in full) | 116 | 116 | 119 | 119 | 132 | 118 | 113 | 95.5 | 85.7 | 16.6 | 3.61 | 108 | 119 | 120 | 123 | 122 | 115 | 113 | 112 | 89.1 | 44.7 | 3.48 | 116 | 117 | 126 | 123 | 125 | 124 | 111 | 105 | 75.6 | 21.9 | 3.49 |
| Cc1c(-c2cccc3c(CCCOc4cccc5ccccc45)c(C(=O)O)n(Cc4cccnc4)c23)c(COc2ccc(N3CCN([S+](=O)([O-])N(C)C)CC3)cc2)nn1C | 92.1 | 87.7 | 94.1 | 85.6 | 87.2 | 92.7 | 84.2 | 88 | 91.2 | 87 | 74 | 96 | 94.3 | 87.4 | 93.2 | 97.4 | 91.6 | 88.5 | 85.8 | 91 | 80.3 | 71.6 | 91.7 | 93.4 | 91.4 | 95.3 | 93 | 88.2 | 82.8 | 90.8 | 81.3 | 82.4 | 67 |
| O=C(O)CCCCC(CCSCc1ccccc1)SCc1ccccc1 (stereo not given) | 112 | 117 | 138 | 119 | 128 | 132 | 130 | 135 | 121 | 119 | 58.4 | 108 | 115 | 114 | 109 | 120 | 116 | 122 | 113 | 118 | 62.1 | 9.29 | 106 | 116 | 116 | 111 | 122 | 124 | 121 | 122 | 116 | 101 | 52.9 |
| Cc1ccccc1C(OCCN(C)C)c1ccccc1 (stereo not given) |  |  |  |  |  |  |  |  |  |  |  | 106 | 118 | 117 | 110 | 113 | 118 | 107 | 129 | 127 | 123 | 123 | 114 | 126 | 118 | 123 | 121 | 113 | 124 | 131 | 124 | 128 | 116 |
| CC(C)N(C[C@H]1O[C@@H](n2cnc3c(N)ncnc32)[C@H](O)[C@@H]1O)[C@H]1C[C@@H](CCc2nc3cc(C(C)(C)C)ccc3[nH]2)C1 | 90 | 96.5 | 103 | 99.2 | 95.4 | 105 | 102 | 103 | 108 | 92.7 | 1.91 | 87.7 | 93.6 | 101 | 98.2 | 99.2 | 103 | 103 | 12.9 | 11.5 | 11.6 | 2.23 | 96.2 | 100 | 103 | 104 | 96.5 | 97.6 | 113 | 99.2 | 31.4 | 31 | 1.74 |
| N#Cc1ccc(Oc2ccc3c(c2)COB3O)cc1 | 117 | 120 | 127 | 81.7 | 135 | 125 | 139 | 138 | 123 | 124 | 53.1 | 112 | 119 | 123 | 90.6 | 129 | 125 | 125 | 102 | 81.5 | 80.6 | 33.9 | 119 | 117 | 113 | 83.9 | 132 | 120 | 135 | 139 | 130 | 124 | 38.6 |
| CCN1C[C@H](C)[N]2C(=C(O)C3=C2\C(=N/N(CC4=CC=C(F)C(=C4)Cl)C3=O)C(=O)NC)C1=O | 103 | 115 | 115 | 110 | 113 | 114 | 111 | 101 | 101 | 105 | 94.7 | 111 | 116 | 126 | 102 | 124 | 121 | 111 | 97.4 | 103 | 107 | 112 | 102 | 105 | 108 | 116 | 105 | 101 | 117 | 108 | 89.7 | 92.4 | 92.5 |
| N[C@H]2CN(CC12CC1)c3c(F)cc4c(c3Cl)[N@@](C=C(C4=O)C(=O)O)C5C[C@H]5F (stereo not given in full) | 79.9 | 91 | 88.8 | 90.4 | 85.8 | 94.5 | 83 | 82.9 | 95 | 83.5 | 86.1 | 97.7 | 91.2 | 101 | 87.6 | 96.6 | 89.8 | 87.3 | 96.1 | 88.8 | 85.4 | 89.9 | 80.7 | 84.8 | 86 | 88.3 | 82.5 | 85.2 | 80.9 | 78 | 84.2 | 77.7 | 81.3 |
| CCn1c(-c2nonc2N)nc2c(C#CC(C)(C)O)ncc(OC[C@H]3CCCNC3)c21 | 77 | 86.2 | 76.2 | 70.6 | 53.1 | 56.4 | 46.2 | 52.7 | 45.1 | 45.9 | 46.7 | 91.1 | 94 | 89 | 84.1 | 73.1 | 74.6 | 69.9 | 66.3 | 65.8 | 61.4 | 58.7 | 81.2 | 87.4 | 80.5 | 77.3 | 66.5 | 66.7 | 58.9 | 56.6 | 48.8 | 50.2 | 49.9 |
| C[C@]12Cc3cn[nH]c3C[C@@H]1CC[C@@H]1[C@@H]2CC[C@@]2(C)[C@H]1CC[C@]2(C)O | 108 | 64.2 | 123 | 112 | 120 | 109 | 102 | 106 | 113 | 110 | 93.7 | 105 | 116 | 113 | 113 | 125 | 110 | 98.1 | 107 | 101 | 120 | 103 | 97.4 | 112 | 111 | 97.2 | 106 | 111 | 105 | 99.6 | 96.9 | 97.5 | 93.1 |
| O=C1CCC[C@@H]2[C@H]3CCCN4CCC[C@@H](CN12)[C@@H]34 | 83.7 | 83.6 | 77.8 | 87.6 | 88.9 | 85.7 | 76.3 | 86 | 79.3 | 87.6 | 75.7 | 78.4 | 85.5 | 83.3 | 87.4 | 96.1 | 92.1 | 83.1 | 88.2 | 92.5 | 98.1 | 93.4 | 74.9 | 79 | 79.7 | 81.8 | 86.8 | 83.7 | 80.1 | 86.2 | 76.9 | 84.7 | 80.9 |
